Source: the NIST ThermoML archive (doi:10.1016/j.fluid.2014.09.024)

Assays:
[1] = for mass density: 101 kPa, Liquid, Vibrating tube method; for Normal melting temperature: Crystal, visual observation
[2] = refractive index (Na D-line) (dimensionless); details: 323.15 K; 101 kPa; Liquid; Standard Abbe refractometry
[3] = refractive index (Na D-line) (dimensionless); xn = mol fraction of the nth substance listed; details: 323.15 K, 101 kPa, Liquid, Standard Abbe refractometry
[4] = xn = mol fraction of the nth substance listed; details: 323.15 K, 101 kPa, Liquid, Vibrating tube method

Oc1ccccc1 [phenol]
[1]
Details	mass density [kg/m3]
313.15 K	1058.51
323.15 K	1049.8

Details	Normal melting temperature [°C]	refractive index
[1]	41.0	–
[2]	–	1.5375

COc1ccccc1 [anisole] + COC(=O)OC
Details	mass density, [4] [kg/m3]	refractive index, [3]
x2 = 0	965.35	1.5012
x2 = 0.05	967.83	1.4963
x2 = 0.1001	970.34	1.4908
x2 = 0.2001	975.5	1.4795
x2 = 0.3	980.89	1.4659
x2 = 0.4	986.63	1.4516
x2 = 0.5	992.69	1.437
x2 = 0.5999	999.08	1.4226
x2 = 0.7	1005.87	1.4087
x2 = 0.8	1013.1	1.393
x2 = 0.9	1020.95	1.3754
x2 = 0.95	1025.2	1.3655

Oc1ccccc1 [phenol] + COC(=O)OC
Details	mass density, [4] [kg/m3]	refractive index, [3]
x2 = 0	1049.79	1.5375
x2 = 0.0469	1049.78	1.53
x2 = 0.1001	1049.78	1.5222
x2 = 0.2001	1049.38	1.5068
x2 = 0.3	1048.47	1.4912
x2 = 0.3999	1047.12	1.479
x2 = 0.5	1045.31	1.4698
x2 = 0.6	1043	1.4592
x2 = 0.7001	1040.26	1.4428
x2 = 0.8	1037.11	1.4169
x2 = 0.9	1033.66	1.384
x2 = 0.9499	1031.81	1.3675

Oc1ccccc1 [phenol] + COc1ccccc1
x2 = 0
Details	mass density [kg/m3]	refractive index
[3]	–	1.5375
[4]	1049.8	–

COc1ccccc1 [anisole] + Oc1ccccc1
Details	mass density, [4] [kg/m3]	refractive index, [3]
x1 = 0.05	1044.95	1.535
x1 = 0.1001	1040.35	1.5333
x1 = 0.2	1031.27	1.5296
x1 = 0.3	1022.44	1.5259
x1 = 0.4	1013.68	1.522
x1 = 0.5	1005.11	1.5183
x1 = 0.6103	995.89	1.5144
x1 = 0.7	988.65	1.5114
x1 = 0.8	980.8	1.508
x1 = 0.9001	973.1	1.5047
x1 = 0.9498	969.31	1.503
x1 = 1	965.35	1.5012

COC(=O)OC [dimethyl carbonate]
[1]
Details	mass density [kg/m3]
298.15 K	1063.26
323.15 K	1029.81

Details	Normal melting temperature [°C]	refractive index
[1]	5.1	–
[2]	–	1.3546

COC(=O)OC [dimethyl carbonate] + Oc1ccccc1
x1 = 1
Details	mass density [kg/m3]	refractive index
[3]	–	1.3546
[4]	1029.81	–

COC(=O)OC [dimethyl carbonate] + COc1ccccc1
x1 = 1
Details	mass density [kg/m3]	refractive index
[3]	–	1.3546
[4]	1029.81	–

COc1ccccc1 [anisole]
[1]
Details	mass density [kg/m3]
298.15 K	989.42
323.15 K	965.35

Details	Normal melting temperature [°C]	refractive index
[1]	-37.9	–
[2]	–	1.5012
